Assay results taken from paper PMC5526551, “New hydrazonoindolin-2-ones: Synthesis, exploration of the possible anti-proliferative mechanism of action and encapsulation into PLGA microspheres” (PLoS ONE, 2017).

Tests used:
A549 = test: Cell viability assay of free 7e and 7e-loaded microspheres; assay type: cell-based, human
Description: Cell viability assay: The cell viability assay was performed as described in the section of anti-proliferative activity in the supplementary materials.
The human lung cancer A549 cell line was incubated with various concentrations (0.8, 1.6, 3.13, 6.25, 12.5, 25 and 50 μM) of both free 7e and 7e-loaded microspheres to evaluate the anti-proliferative activity by assessing their effect on cell viability.
A549, HT-29, ZR-75 were obtained from the American Type Culture Collection (ATCC). Cells were harvested from 90-95% confluent 10 cm dishes, and diluted in growth media (RPMI-1640 supplemented with 5% fetal bovine serum). An appropriate concentration of cells were prepared to add 1,250 cells in a volume of 25 µL per well in tissue culture treated Griener 384-well microplates, then incubated overnight at 37°C. Compound 7e was diluted to a concentration of 30 µM in DMSO. Concentrated dosing solutions of twice the final concentration were prepared by dilution of the DMSO stocks 1:500 in growth media. Two-fold serial dilutions were then prepared in medium containing 0.2% DMSO to maintain a constant concentration of vehicle throughout the concentration range of the compound. Each of these was added in an equal volume (25 µL) to four wells on each cell assay plate, along with the vehicle control. The highest concentration for serial dilutions of the positive control (sunitinib) was prepared exactly as the experimental compound 7e. […]
At the end of the treatment period, assay plates were allowed to cool to RT for 10 min prior to the addition of 25 µL per well Promega CellTiterGlo reagent, followed by additional 10 min incubation at RT. The resulting luminescence was quantitated using a Molecular Devices Spectramax Paradigm.

[1] = In vitro 7e release (vial method, phosphate buffer pH 7.4); assay type: physicochemical; settings: after 5 days, pH 7.4, 37°C
Description: In vitro7e-release: Studies on the in vitro release of 7e from microspheres were carried out using the vial method as reported by Dubey et al.. Compound 7e-PLGA-microspheres containing 5 mg equivalent of compound 7e were suspended in a vial containing phosphate buffer (10 mL, pH 7.4) with 0.3% Tween 80 to improve the solubility of 7e. The vial was incubated in a water bath at 37 ± 0.5°C and vibrated horizontally at speed of 100 rpm. In vitro 7e release was assessed by intermittently sampling the vial (2 mL) at predetermined time intervals (1, 2, 3, 4, 5, 6, 10, 12, 15, 18, 20 and 21 days), then replacing the volume with 2 mL of fresh phosphate buffer.
In vitro 7e release was assessed in phosphate buffer (pH 7.4) containing a surfactant to simulate the physiological milieu and maintain sink conditions. Samples were incubated at 37°C, and the amount of 7e was determined using a UV spectrophotometer. […] On the other hand, the release of compound 7e from the raw powder was faster than its release from the microspheres, as 65% of 7e was released after 5 days. This uncontrolled burst release of compound 7e from raw powder could result in too high local concentration which could lead to severe local tissue injure and hamper appropriate delivery to the target.

[2] = test system: Caspase 3/7 activity in A549 cells; test: Apoptosis and caspase 3/7 activity (CaspaseGlo 3/7 luminescence); assay type: cell-based, human; settings: for Increase in caspase 3/7 activity: A549, 10 μM
Description: Compound 7e was analyzed for apoptosis inducing activity in cancer cells. These studies were carried out using cells derived from human lung (A549).
Fig 4 A-549 human lung cancer cells were treated with 3.3 and 10 μM 7e over a time course from 2–48 h. Caspase 3/7 activity was measured by a luminescence-based homogenous assay.
A549 cells were harvested from a 90% confluent 10 cm dish and diluted in growth medium. An appropriate concentration of cells were prepared to add 1,250 cells in a volume of 25 µL per well in tissue culture treated Corning 384-well microplates, then incubated overnight at 37°C. A single cluster of four wells containing no cells was included to serve as a background (no cell) control. Compound 7e was diluted in DMSO to concentrations […].
Concentrated dosing solutions of twice the final concentration were prepared by dilution of the DMSO stocks 1:500 in growth media. Three-fold dilutions of each dosing medium was then prepared in medium containing 0.2% DMSO to maintain a constant concentration of vehicle throughout the concentration range of the compound. Each of these was added in equal volume (25 µL) to four wells on each cell assay plate, along with the vehicle control. Cells were incubated with the compounds for a further 48 h. After 24 h, a separate group of cells was treated identically for 24 h. Likewise, groups of cells were treated for durations of 16, 8, 4 and 2 h.
At the end of the treatment period, assay plates were allowed to cool to RT for 10 min prior to addition of 25 µL per well Promega CaspaseGlo 3/7 reagent, followed by an additional 10 min incubation at RT. The resulting luminescence was quantitated using a Molecular Devices Spectramax Paradigm.
The average mean value of the background “no cell” control sample wells were subtracted from all vehicle and test compound wells.Fold-change in caspase activity was then calculated by dividing the mean sample value for each treatment time point by the mean vehicle value for the corresponding time.

NCI-H69AR = test: Growth inhibition in multidrug resistant lung cancer cell line; assay type: cell-based; settings: 72 h, maximum 25 μM
Description: Compound 7e was analyzed for cancer cell growth inhibitory activity in a sensitive NSCLC cell line (A549) and a multidrug resistant lung cancer cell line (NCI-H69AR) which expresses the ABCC1 efflux pump protein. This assessment of activity tested compounds in quadruplicate at a maximum concentration of 25 μM, followed by 10 serially diluted concentrations.
A549 and H69AR cells were harvested from 90-95% confluent 10 cm dishes, and diluted in growth media. An appropriate concentration of cells was prepared to add 1,250 cells in a volume of 25 µL per well in tissue culture treated BD 384-well microplates, then incubated overnight at 37 °C.
Compound 7e was diluted to a concentration of 25 µM in DMSO. Concentrated dosing solutions (double the final concentration) were prepared by dilution of the DMSO stocks 1:500 in growth medium. Two-fold serial dilutions were then prepared in medium containing 0.2% DMSO to maintain a constant concentration of vehicle throughout the concentration range of the compound. Each of these was added in equal volume (25 µL), to four wells on each cell assay plate, along with the vehicle control. The highest concentration for serial dilution of the positive control compound sunitinib was prepared exactly as the experimental compound 7e. Cells were incubated at 37°C with the compounds for a further 72 h. At the end of the treatment period, assay plates were allowed to cool to RT for 10 min prior to addition of 25 µL per well Promega CellTiterGlo reagent, followed by an additional 10 min incubation at RT. The resulting luminescence was quantitated using a Molecular Devices Spectramax Paradigm.
Percent growth inhibition was calculated using equation (1). The potency of compounds was determined using the non-linear dose response algorithm (four-parameter logistic fit) with GraphPad Prism 5 software.

## O=C1Nc2ccc(Br)cc2C1=NN=C1C(=O)N(Cc2ccccc2)c2ccccc21 [Compound 7e, 1-Benzyl-3-((5-bromo-2-oxoindolin-3-ylidene)hydrazono)indolin-2-one]
other
  melting point: 265 to 267 °C
A549; A549, 0.8 μM, 24 h
  Reduction in cell viability: no cytotoxicity
A549; A549, 1.6 μM, 24 h
  Reduction in cell viability: no cytotoxicity
A549; A549, 1.6 μM, 72 h
  Reduction in cell viability: 30%
A549; A549, 3.1 μM, 72 h
  Reduction in cell viability: 70%
A549; A549, 3.1 μM, 120 h
  Reduction in cell viability: almost total inhibition
A549; A549, 3.13 μM, 24 h
  Reduction in cell viability: 20%
A549; A549, 6.25 μM, 24 h
  Reduction in cell viability: remarkable reduction
A549; Homo sapiens, A549, 24 h of incubation, read-out: IC50 toward A549 cells
  IC50: 6.51 µM
[1]
  Cumulative in vitro release of 7e: 65%
[2]; 4 h
  Increase in caspase 3/7 activity: 2.4 fold
[2]; 8 h
  Increase in caspase 3/7 activity: 1.85 fold
[2]; A549, lower tested concentration (3.3 μM)
  Effect on caspase 3/7 activity: no effect
NCI-H69AR
  IC50: 12.7 µM
NCI-H69AR; NCI-H69AR
  IC50: 12.7 µM

## CCN(CC)CCNC(=O)c1c(C)[nH]c(/C=C2\C(=O)Nc3ccc(F)cc32)c1C [Sunitinib, sunitinib, reference compound]
NCI-H69AR
  IC50: 5.8 µM
NCI-H69AR; NCI-H69AR
  IC50: 5.83 µM
